The target of one assay is T1, CBP (Homo sapiens, UniProt Q92793).
T1 construct: host or cells: A549 CBP HiBit cells
The assay can be described thus: CBP degradation, HiBit technology in A549 CBP HiBit cells (24 h). The format is cell-based. Particulars: 24 hrs post treatment. In short, it runs like this:
(§1)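 HiBiT knock-in A549 cells received compound in serial dilution at 37 °C under 5% CO2. Remaining tagged protein was quantified by lytic HiBiT luminescence after 10 min shaking at room temperature, yielding potency and maximal degradation.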

In another assay the target is T2, p300 (Homo sapiens, UniProt Q09472).
T2 construct: host or cells: A549 P300 HiBit cells
T2 sequence (Q09472 whole entry): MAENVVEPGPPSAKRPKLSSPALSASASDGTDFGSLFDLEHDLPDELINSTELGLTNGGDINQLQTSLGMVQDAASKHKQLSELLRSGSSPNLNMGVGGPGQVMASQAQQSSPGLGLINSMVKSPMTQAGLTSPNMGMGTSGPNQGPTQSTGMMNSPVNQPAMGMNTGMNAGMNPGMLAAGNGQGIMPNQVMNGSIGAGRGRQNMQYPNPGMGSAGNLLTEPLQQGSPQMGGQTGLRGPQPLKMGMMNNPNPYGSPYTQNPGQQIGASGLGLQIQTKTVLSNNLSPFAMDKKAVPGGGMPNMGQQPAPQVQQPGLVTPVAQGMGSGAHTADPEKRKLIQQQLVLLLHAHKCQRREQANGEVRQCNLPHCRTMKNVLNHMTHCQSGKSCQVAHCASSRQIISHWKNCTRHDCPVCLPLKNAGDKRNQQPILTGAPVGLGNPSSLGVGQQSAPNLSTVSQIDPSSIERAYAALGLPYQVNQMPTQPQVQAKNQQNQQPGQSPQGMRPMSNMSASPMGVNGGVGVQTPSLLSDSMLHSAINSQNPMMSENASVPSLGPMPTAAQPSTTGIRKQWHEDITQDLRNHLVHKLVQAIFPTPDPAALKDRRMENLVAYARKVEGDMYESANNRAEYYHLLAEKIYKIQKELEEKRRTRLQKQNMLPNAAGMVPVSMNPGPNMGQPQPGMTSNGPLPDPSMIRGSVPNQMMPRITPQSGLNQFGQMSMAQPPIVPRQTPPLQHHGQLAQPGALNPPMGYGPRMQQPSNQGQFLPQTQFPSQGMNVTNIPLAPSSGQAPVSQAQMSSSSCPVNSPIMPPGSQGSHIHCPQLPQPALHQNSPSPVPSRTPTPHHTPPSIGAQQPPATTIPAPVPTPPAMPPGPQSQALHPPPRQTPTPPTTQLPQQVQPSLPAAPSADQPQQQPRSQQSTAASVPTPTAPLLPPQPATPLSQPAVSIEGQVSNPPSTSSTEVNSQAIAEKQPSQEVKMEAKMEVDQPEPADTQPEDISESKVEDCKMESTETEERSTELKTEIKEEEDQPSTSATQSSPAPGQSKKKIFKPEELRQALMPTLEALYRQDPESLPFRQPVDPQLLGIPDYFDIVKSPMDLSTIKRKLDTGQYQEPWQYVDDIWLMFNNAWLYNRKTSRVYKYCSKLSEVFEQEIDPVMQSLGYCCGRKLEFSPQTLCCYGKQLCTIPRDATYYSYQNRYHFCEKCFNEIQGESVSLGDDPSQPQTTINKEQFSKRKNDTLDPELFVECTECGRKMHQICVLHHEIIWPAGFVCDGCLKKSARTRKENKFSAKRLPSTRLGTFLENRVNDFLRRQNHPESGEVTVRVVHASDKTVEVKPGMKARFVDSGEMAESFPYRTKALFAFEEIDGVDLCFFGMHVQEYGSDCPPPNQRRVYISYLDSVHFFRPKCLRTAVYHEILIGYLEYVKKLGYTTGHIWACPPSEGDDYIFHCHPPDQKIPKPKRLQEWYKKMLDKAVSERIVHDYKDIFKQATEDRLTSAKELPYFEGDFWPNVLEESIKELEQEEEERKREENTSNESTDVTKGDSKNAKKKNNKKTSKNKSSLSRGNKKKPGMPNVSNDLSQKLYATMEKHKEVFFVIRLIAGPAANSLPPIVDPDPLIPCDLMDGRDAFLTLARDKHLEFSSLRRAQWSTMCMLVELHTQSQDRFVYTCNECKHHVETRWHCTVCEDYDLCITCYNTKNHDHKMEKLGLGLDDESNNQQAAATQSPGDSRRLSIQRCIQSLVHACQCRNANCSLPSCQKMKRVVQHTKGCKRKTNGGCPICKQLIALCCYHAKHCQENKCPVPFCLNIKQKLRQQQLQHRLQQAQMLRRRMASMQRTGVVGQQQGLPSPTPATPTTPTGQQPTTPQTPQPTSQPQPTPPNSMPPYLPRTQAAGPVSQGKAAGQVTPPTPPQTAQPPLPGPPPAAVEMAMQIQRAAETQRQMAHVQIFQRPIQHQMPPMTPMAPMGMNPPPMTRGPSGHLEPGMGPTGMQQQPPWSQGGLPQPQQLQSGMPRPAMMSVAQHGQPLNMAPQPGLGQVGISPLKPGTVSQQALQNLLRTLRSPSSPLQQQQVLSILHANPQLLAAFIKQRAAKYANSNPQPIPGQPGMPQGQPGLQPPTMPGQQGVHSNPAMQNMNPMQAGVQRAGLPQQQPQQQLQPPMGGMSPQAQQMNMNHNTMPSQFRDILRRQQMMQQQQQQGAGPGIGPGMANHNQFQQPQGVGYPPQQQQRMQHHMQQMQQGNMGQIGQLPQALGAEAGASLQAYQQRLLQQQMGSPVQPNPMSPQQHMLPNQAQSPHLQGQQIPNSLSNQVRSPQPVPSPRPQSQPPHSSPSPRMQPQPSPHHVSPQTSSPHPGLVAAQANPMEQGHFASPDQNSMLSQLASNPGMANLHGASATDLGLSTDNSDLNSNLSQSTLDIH
In words: P300 degradation, HiBit technology in A549 P300 HiBit cells (2 h). The format is cell-based. The conditions noted are these: 2 hrs post treatment; for Dmax: A549, A549 P300 HiBit cells; for DC50: A549 P300 HiBit cells. In short, it runs like this: as §1

Here are results for 16 compounds from patent publication US20250114345A1, “COMPOUNDS AND COMPOSITIONS AS CBP/P300 DEGRADERS AND USES THEREOF” (Oncopia Therapeutics, Inc. d/b/a/ SK Life Science Labs, priority 2023, published 2025).

T1 sequence (Q92793 whole entry): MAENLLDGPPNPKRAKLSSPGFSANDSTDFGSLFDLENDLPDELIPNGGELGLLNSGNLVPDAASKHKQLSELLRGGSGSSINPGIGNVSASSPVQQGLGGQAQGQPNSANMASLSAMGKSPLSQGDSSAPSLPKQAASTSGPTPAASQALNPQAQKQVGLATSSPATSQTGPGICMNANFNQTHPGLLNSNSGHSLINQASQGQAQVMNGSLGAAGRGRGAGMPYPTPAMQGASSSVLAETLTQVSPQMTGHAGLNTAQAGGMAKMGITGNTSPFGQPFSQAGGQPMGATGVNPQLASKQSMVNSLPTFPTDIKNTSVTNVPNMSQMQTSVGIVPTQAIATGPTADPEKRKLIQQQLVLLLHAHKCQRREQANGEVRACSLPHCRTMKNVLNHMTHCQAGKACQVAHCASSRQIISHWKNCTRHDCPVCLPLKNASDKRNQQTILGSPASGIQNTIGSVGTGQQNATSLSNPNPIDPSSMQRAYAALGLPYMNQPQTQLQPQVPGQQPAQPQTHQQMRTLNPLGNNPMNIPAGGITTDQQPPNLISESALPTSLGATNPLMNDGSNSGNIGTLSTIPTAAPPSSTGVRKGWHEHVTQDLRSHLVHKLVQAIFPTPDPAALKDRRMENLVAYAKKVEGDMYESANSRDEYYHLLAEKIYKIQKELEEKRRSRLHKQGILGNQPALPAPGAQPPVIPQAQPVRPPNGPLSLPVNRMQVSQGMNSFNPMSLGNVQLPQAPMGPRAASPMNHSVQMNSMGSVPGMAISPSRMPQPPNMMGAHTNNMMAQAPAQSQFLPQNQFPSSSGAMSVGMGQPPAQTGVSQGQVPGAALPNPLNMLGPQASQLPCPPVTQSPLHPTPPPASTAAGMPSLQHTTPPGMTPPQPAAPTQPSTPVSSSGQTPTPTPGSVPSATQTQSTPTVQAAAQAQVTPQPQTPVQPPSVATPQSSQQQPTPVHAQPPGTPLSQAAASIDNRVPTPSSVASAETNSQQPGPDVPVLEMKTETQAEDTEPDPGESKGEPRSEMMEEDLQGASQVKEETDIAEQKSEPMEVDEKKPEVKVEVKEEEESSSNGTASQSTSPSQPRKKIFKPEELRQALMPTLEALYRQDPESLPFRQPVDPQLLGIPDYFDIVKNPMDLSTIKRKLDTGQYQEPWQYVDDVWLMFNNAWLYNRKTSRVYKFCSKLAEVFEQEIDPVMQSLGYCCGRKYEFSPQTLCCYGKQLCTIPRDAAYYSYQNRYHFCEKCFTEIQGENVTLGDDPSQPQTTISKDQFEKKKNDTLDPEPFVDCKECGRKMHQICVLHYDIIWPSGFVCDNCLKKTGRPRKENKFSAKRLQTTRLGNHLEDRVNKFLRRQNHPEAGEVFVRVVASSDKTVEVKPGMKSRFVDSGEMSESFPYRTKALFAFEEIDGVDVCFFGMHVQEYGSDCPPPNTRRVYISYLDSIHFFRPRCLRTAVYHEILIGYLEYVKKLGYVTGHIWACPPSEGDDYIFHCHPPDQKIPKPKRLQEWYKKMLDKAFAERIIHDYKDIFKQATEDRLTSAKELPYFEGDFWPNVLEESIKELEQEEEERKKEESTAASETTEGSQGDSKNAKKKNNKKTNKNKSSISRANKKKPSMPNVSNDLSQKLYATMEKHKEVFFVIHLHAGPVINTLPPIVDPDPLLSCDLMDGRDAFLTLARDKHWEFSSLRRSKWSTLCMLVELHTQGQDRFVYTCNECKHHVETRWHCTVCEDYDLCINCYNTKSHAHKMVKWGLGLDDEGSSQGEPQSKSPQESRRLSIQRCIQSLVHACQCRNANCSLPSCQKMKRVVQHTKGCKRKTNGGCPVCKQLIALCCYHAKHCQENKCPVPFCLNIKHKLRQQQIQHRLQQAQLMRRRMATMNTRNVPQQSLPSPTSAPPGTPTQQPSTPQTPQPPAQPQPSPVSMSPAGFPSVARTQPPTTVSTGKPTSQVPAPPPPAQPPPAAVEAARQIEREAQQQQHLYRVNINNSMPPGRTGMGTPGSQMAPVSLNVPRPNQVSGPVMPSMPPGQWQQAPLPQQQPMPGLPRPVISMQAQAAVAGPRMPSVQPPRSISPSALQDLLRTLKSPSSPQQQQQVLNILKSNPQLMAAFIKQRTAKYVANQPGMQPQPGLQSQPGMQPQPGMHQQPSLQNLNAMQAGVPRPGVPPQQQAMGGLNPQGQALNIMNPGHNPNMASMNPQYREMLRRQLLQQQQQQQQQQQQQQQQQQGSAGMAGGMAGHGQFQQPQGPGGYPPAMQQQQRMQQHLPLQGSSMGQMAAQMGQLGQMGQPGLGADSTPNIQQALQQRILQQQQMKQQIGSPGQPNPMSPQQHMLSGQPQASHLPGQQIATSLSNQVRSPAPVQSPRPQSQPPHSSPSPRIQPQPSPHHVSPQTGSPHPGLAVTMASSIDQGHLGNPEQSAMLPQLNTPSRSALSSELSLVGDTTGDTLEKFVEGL

With `CC(C)c1cc(-c2cccc3cc(-c4ccc(C(=O)NCC#Cc5ccc6oc(F)c(C7CCC(=O)NC7=O)c6c5)nc4)ncc23)cc2c1n(C)c(=O)n2C` (stereo not shown) [Example A158, N-(3-(3-(2,6-dioxo-piperidin-3-yl)-2-fluorobenzofuran-5-yl)prop-2-yn-1-yl)-5-(8-(7-isopropyl-1,3-dimethyl-2-oxo-2,3-dihydro-1H-benzo [d]imidazol-5-yl)isoquinolin-3-yl)picolinamide], at CBP, the half-maximal degradation concentration (DC50) fell in the range of 10 to 99 nM and the Dmax lay in the range of 40 to 59%. On p300, the Dmax is greater than 80% and the half-maximal degradation concentration (DC50) fell in the range of 1 to 9.9 nM.

In the case of `CC(C)c1cc(-c2cccc3cc(-c4ccc(C(=O)NCC#Cc5cc6c(C7CCC(=O)NC7=O)nccc6s5)nc4)ncc23)cc2c1n(C)c(=O)n2C` (stereo not shown) [Example A208, N-(3-(4-(2,6-dioxo-piperidin-3-yl)thieno[3,2-c]pyridin-2-yl)prop-2-yn-1-yl)-5-(8-(7-isopropyl-1,3-dimethyl-2-oxo-2,3-dihydro-1H-benzo[d]imidazol-5-yl)isoquinolin-3-yl)picolinamide], the results for the DC50 on CBP and on p300 were 10 to 99 nM and 1 to 9.9 nM, respectively. For the same compound, the figures for the Dmax on CBP and on p300 were 60 to 79% and greater than 80%, respectively.

At CBP, `Cc1cc(-c2ncc3c(n2)CCCN3c2cccc3c2cc(C)c(=O)n3C)cnc1C(=O)NCC#Cc1cc2c(C3CCC(=O)NC3=O)cccc2o1` (stereo not shown) [Example B153, 5-(5-(1,3-dimethyl-2-oxo-1,2-dihydroquinolin-5-yl)-5,6,7,8-tetrahydropyrido[3,2-d]pyrimidin-2-yl)-N-(3-(4-(2,6-dioxopiperidin-3-yl)benzofuran-2-yl)prop-2-yn-1-yl)-3-methylpicolinamide] registered a DC50 of 100 to 999 nM and a Dmax of less than 20%. On p300, this compound returned a Dmax greater than 80% and a DC50 of less than 1 nM.

`Cn1c(=O)n(C)c2cc(N3CCOc4nc(-c5ccc(C(=O)NCC#Cc6cc7c(C8CCC(=O)NC8=O)cccc7o6)nc5)ncc43)ccc21` (stereo not shown) [Example A165, 5-(5-(1,3-dimethyl-2-oxo-2,3-dihydro-1H-benzo[d]imidazol-5-yl)-6,7-dihydro-5H-pyrimido[4,5-b][1,4]oxazin-2-yl)-N-(3-(4-(2,6-dioxopiperidin-3-yl)benzofuran-2-yl)prop-2-yn-1-yl)picolinamide]: the results for the DC50 at CBP and at p300 were greater than 1000 nM and 1 to 9.9 nM, respectively. In addition, the Dmax at CBP is less than 20%; at p300, greater than 80%.

On to `Cc1cc(-c2cc3cccc(-c4cc(C)c5c(c4)n(C)c(=O)n5C)c3cn2)cnc1C(=O)NCC#Cc1ccc2occ(C3CCC(=O)NC3=O)c2c1` (stereo not shown) [Example A87, N-(3-(3-(2,6-dioxo-piperidin-3-yl)benzofuran-5-yl)prop-2-yn-1-yl)-3-methyl-5-(8-(1,3,7-trimethyl-2-oxo-2,3-dihydro-1H-benzo [d]imidazol-5-yl)isoquinolin-3-yl)picolinamide], for which the DC50 is greater than 1000 nM at CBP and 1 to 9.9 nM on p300. Further, the Dmax is less than 20% at CBP and greater than 80% on p300.

At CBP, `Cc1cc2c(N3CCCc4nc(-c5ccc(C(=O)NCC#Cc6cc7c([C@@H]8CCC(=O)NC8=O)cccc7o6)nc5)ncc43)cc(C3CCOCC3)cc2n(C)c1=O` [Example B39, (S)-5-(5-(1,3-dimethyl-2-oxo-7-(tetrahydro-2H-pyran-4-yl)-1,2-dihydroquinolin-5-yl)-5,6,7,8-tetrahydropyrido[3,2-d]pyrimidin-2-yl)-N-(3-(4-(2,6-dioxopiperidin-3-yl)benzofuran-2-yl)prop-2-yn-1-yl)picolinamide] gave a DC50 greater than 1000 nM and a maximal degradation (Dmax) of less than 20%. At p300, this compound registered a Dmax greater than 80% and a DC50 of 1 to 9.9 nM.

Turning to `Cc1cc2c(N3CCCc4nc(-c5ccc(C(=O)NCC#Cc6cc7c(C8CCC(=O)NC8=O)cccc7o6)nc5)ncc43)nc(N3CC(C)(O)C3)cc2n(C)c1=O` (stereo not shown) [Example B168, N-(3-(4-(2,6-dioxopiperidin-3-yl)benzofuran-2-yl)prop-2-yn-1-yl)-5-(5-(7-(3-hydroxy-3-methylazetidin-1-yl)-1,3-dimethyl-2-oxo-1,2-dihydro-1,6-naphthyridin-5-yl)-5,6,7,8-tetrahydropyrido[3,2-d]pyrimidin-2-yl) picolinamide], the DC50 is greater than 1000 nM on CBP and less than 1 nM on p300. Further, the maximal degradation (Dmax) was less than 20% at CBP and greater than 80% on p300.

`Cc1cc2c(-c3cccc4cc(-c5ccc(C(=O)NCC#Cc6cc7c(C8CCC(=O)NC8=O)cccc7o6)nc5)ncc34)nc(N3CCOCC3)cc2n(C)c1=O` (stereo not shown) [Example B74, 5-(8-(1,3-dimethyl-7-morpholino-2-oxo-1,2-dihydro-1,6-naphthyridin-5-yl)isoquinolin-3-yl)-N-(3-(4-(2,6-dioxopiperidin-3-yl)benzofuran-2-yl)prop-2-yn-1-yl)picolinamide]: on CBP, the half-maximal degradation concentration (DC50) is greater than 1000 nM and the Dmax is less than 20%. Further, at p300, the Dmax was greater than 80% and the DC50 fell in the range of 1 to 9.9 nM.

As to `Cn1c(=O)n(C)c2c(F)cc(-c3cccc4cc(-c5ccc(C(=O)NCC#Cc6ccc7occ(C8CCC(=O)NC8=O)c7c6)nc5)ncc34)cc21` (stereo not shown) [Example A64, N-(3-(3-(2,6-dioxopiperidin-3-yl)benzofuran-5-yl)prop-2-yn-1-yl)-5-(8-(7-fluoro-1,3-dimethyl-2-oxo-2,3-dihydro-1H-benzo[d]imidazol-5-yl)isoquinolin-3-yl)picolinamide], on CBP, the DC50 is greater than 1000 nM and the Dmax is less than 20%. Also, on p300, the Dmax was greater than 80% and the DC50 fell in the range of 1 to 9.9 nM.

Take `Cc1cc(-c2ncc(N(C)c3cc(C(C)C)c4c(c3)n(C)c(=O)n4C)cn2)cnc1C(=O)NCC#Cc1cccc(NC2CCC(=O)NC2=O)c1` (stereo not shown) [Example A51, N-(3-(3-((2,6-dioxopiperidin-3-yl)amino)phenyl)prop-2-yn-1-yl)-5-(5-((7-isopropyl-1,3-dimethyl-2-oxo-2,3-dihydro-1H-benzo [d]imidazol-5-yl)(methyl)amino)pyrimidin-2-yl)-3-methylpicolinamide]: at CBP, the DC50 is greater than 1000 nM and the Dmax was less than 20%. Also, on p300, the Dmax was greater than 80% and the DC50 lay in the range of 1 to 9.9 nM.

In the case of `Cc1cc(-c2ccc(N(C)c3cc(C(C)C)c4c(c3)n(C)c(=O)n4C)cn2)cnc1C(=O)NCC#Cc1cccc(NC2CCC(=O)NC2=O)c1` (stereo not shown) [Example A34, N-(3-(3-((2,6-Dioxopiperidin-3-yl)amino)phenyl)prop-2-yn-1-yl)-5-((7-isopropyl-1,3-dimethyl-2-oxo-2,3-dihydro-1H-benzo[d]imidazol-5-yl)(methyl)amino)-5′-methyl-[2,3′-bipyridine]-6′-carboxamide], on CBP, the 50% degradation concentration (DC50) was greater than 1000 nM and the Dmax is less than 20%. On p300, this compound displayed a Dmax greater than 80% and a DC50 of 10 to 99 nM.

At CBP, `Cc1cc(-c2ncc3c(n2)OCCN3c2cc(C)c3c(c2)n(C)c(=O)n3C)cnc1C(=O)NCC#Cc1ccc2occ(C3CCC(=O)NC3=O)c2c1` (stereo not shown) [Example A88, N-(3-(3-(2,6-dioxo-piperidin-3-yl)benzofuran-5-yl)prop-2-yn-1-yl)-3-methyl-5-(5-(1,3,7-trimethyl-2-oxo-2,3-dihydro-1H-benzo [d]imidazol-5-yl)-6,7-dihydro-5H-pyrimido [4,5-b][1,4]oxazin-2-yl)picolinamide] gave a DC50 greater than 1000 nM and a maximal degradation (Dmax) of less than 20%. Also, at p300, the Dmax was greater than 80% and the DC50 is greater than 1000 nM.

`Cc1cc2c(N3CCOc4nc(-c5ccc(C(=O)NCC#Cc6cc7c(C8CCC(=O)NC8=O)cccc7o6)nc5)ncc43)cc(C3CCOCC3)cc2n(C)c1=O` (stereo not shown) [Example B96, 5-(5-(1,3-dimethyl-2-oxo-7-(tetrahydro-2H-pyran-4-yl)-1,2-dihydroquinolin-5-yl)-6,7-dihydro-5H-pyrimido[4,5-b][1,4]oxazin-2-yl)-N-(3-(4-(2,6-dioxopiperidin-3-yl)benzofuran-2-yl)prop-2-yn-1-yl)picolinamide]: at CBP, the DC50 is 100 to 999 nM and the Dmax is less than 20%. Also, on p300, the Dmax was greater than 80% and the DC50 lay within 1 to 9.9 nM.

For `CCn1c(=O)n(C)c2c(N3CCOCC3)nc(-c3cccc4cc(-c5ccc(C(=O)NCC#Cc6ccc7occ(C8CCC(=O)NC8=O)c7c6)nc5)ncc34)cc21` (stereo not shown) [Example A108, N-(3-(3-(2,6-dioxo-piperidin-3-yl)benzofuran-5-yl)prop-2-yn-1-yl)-5-(8-(1-ethyl-3-methyl-4-morpholino-2-oxo-2,3-dihydro-1H-imidazo[4,5-c]pyridin-6-yl)isoquinolin-3-yl)picolinamide], the DC50 at CBP is greater than 1000 nM; at p300, 1 to 9.9 nM. Further, the maximal degradation (Dmax) at CBP is less than 20%; on p300, greater than 80%.

On CBP, `Cc1cc(-c2cc3cccc(-c4ccc5c(c4)n(C)c(=O)n5C)c3cn2)cnc1C(=O)NCC#Cc1cc2c([C@@H]3CCC(=O)NC3=O)cccc2o1` [Example A182, (S)-5-(8-(1,3-dimethyl-2-oxo-2,3-dihydro-1H-benzo[d]imidazol-5-yl)isoquinolin-3-yl)-N-(3-(4-(2,6-dioxopiperidin-3-yl)benzofuran-2-yl)prop-2-yn-1-yl)-3-methylpicolinamide] yielded a DC50 greater than 1000 nM and a maximal degradation (Dmax) of less than 20%. Also, on p300, the Dmax is greater than 80% and the DC50 is 1 to 9.9 nM.

As to `Cc1cc2c(N3CCN(C)c4nc(-c5ccc(C(=O)NCC#Cc6cc7c(C8CCC(=O)NC8=O)nccc7o6)nc5)ncc43)cccc2n(C)c1=O` (stereo not shown) [Example B32, 5-(5-(1,3-dimethyl-2-oxo-1,2-dihydroquinolin-5-yl)-8-methyl-5,6,7,8-tetrahydropteridin-2-yl)-N-(3-(4-(2,6-dioxopiperidin-3-yl)furo[3,2-c]pyridin-2-yl)prop-2-yn-1-yl)picolinamide], the DC50 was 1 to 9.9 nM on CBP and less than 1 nM on p300. Also, the greatest degradation seen (Dmax) on CBP is 60 to 79%; on p300, greater than 80%.
